The values that follow come from US8871753B2, “Macrocyclic compounds and their use as kinase inhibitors” (Incyte Corporation, priority 2008, dated 2014).

Format in all cases: biochemical
Test [1] has as its target TYK2 (Homo sapiens, UniProt P29597). The test can be described thus: TYK2 kinase inhibition (Table A1).
Test [2] concerns the target T1, human JAK1 (a.a. 837-1142) (Homo sapiens, UniProt P23458).
T1 construct: human JAK1 (a.a. 837-1142); His tag (N); made in house; host or cells: insect cells (baculovirus)
As to the kind of experiment: In vitro JAK kinase assay (HTRF, phosphorylation of a biotinylated peptide), JAK1. The settings on record: read-out: JAK1 IC50. The method in brief: (§1)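 Kinase reactions ran at room temperature for 1 h with ATP matched per isoform (JAK1 90 μM, JAK2 30 μM, JAK3 3 μM). After an EDTA stop, the phosphorylated biotin-peptide was read by HTRF using Eu-Py20 and SA-APC after 40 min binding.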

Test [3] addresses T2, Recombinant Human Anaplastic Lymphoma Kinase (Homo sapiens, UniProt Q9UM73).
T2 construct: purchased Invitrogen, Carlsbad, Calif
The test can be described thus: ALK HTRF kinase assay. To be noted: for IC50: Table B1, cells without percent sign. In outline: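 TR-FRET read-out (Eu anti-pTyr antibody + streptavidin-APC) of biotin-peptide phosphorylation by recombinant human enzyme; IC50 by sigmoidal fit with top/bottom baselines and Hill slope.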
Background: In TR-FRET formats the signal depends on donor and acceptor labels being close together.

Test [4] deals with T3, human JAK2 (a.a. 828-1132) (Homo sapiens, UniProt O60674).
T3 construct: JAK2 (a.a. 828-1132); His tag (N); made in house; host or cells: insect cells (baculovirus)
T3 sequence (O60674 828-1132): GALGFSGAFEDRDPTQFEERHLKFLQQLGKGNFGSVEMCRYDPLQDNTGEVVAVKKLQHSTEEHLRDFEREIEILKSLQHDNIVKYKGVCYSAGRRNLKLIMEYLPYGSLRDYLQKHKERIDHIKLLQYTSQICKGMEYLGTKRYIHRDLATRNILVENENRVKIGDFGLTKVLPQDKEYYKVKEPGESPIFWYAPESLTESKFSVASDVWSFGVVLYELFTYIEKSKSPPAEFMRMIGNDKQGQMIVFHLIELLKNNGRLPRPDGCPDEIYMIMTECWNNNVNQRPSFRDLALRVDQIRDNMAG
The test can be described thus: In vitro JAK kinase assay (HTRF, phosphorylation of a biotinylated peptide), JAK2. In outline: as §1

The target in test [5] is T4, human JAK3 (a.a. 781-1124) (Homo sapiens, UniProt P52333).
T4 construct: JAK3 (a.a. 781-1124); His tag (N); made in house; host or cells: insect cells (baculovirus)
T4 sequence (P52333 781-1124): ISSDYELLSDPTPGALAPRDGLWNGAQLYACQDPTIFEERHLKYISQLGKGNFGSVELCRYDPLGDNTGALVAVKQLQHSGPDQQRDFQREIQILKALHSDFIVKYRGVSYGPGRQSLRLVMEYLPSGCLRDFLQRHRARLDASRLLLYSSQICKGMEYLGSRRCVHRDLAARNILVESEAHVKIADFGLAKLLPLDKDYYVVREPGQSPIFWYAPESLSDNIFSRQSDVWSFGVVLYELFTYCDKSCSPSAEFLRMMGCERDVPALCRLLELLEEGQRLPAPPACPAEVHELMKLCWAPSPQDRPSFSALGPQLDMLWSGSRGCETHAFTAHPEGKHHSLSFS
The test can be described thus: In vitro JAK kinase assay (HTRF, phosphorylation of a biotinylated peptide), JAK3. In outline: as §1

Where [6] appears, read: compound at a concentration of 500 nM or 1 mM (not specified), cells shown as percentage.
[7] abbreviates: method AA1 (90 μM ATP) or AA2 (1000 μM ATP), not stated per value.
Where [8] appears, read: compound at 500 nM or 1 mM, 90 μM ATP.
[9] abbreviates: method AA1 (30 μM ATP) or AA2 (1000 μM ATP), not stated per value.
Where [10] appears, read: method AA1 (3 μM ATP) or AA2 (1000 μM ATP), not stated per value.

SMILES strings stand for the structures. Structures can show the parent of a compound that is named as a salt. Where two headings read alike, the source gives them in different places.

TYK2, sequence (P29597 whole entry): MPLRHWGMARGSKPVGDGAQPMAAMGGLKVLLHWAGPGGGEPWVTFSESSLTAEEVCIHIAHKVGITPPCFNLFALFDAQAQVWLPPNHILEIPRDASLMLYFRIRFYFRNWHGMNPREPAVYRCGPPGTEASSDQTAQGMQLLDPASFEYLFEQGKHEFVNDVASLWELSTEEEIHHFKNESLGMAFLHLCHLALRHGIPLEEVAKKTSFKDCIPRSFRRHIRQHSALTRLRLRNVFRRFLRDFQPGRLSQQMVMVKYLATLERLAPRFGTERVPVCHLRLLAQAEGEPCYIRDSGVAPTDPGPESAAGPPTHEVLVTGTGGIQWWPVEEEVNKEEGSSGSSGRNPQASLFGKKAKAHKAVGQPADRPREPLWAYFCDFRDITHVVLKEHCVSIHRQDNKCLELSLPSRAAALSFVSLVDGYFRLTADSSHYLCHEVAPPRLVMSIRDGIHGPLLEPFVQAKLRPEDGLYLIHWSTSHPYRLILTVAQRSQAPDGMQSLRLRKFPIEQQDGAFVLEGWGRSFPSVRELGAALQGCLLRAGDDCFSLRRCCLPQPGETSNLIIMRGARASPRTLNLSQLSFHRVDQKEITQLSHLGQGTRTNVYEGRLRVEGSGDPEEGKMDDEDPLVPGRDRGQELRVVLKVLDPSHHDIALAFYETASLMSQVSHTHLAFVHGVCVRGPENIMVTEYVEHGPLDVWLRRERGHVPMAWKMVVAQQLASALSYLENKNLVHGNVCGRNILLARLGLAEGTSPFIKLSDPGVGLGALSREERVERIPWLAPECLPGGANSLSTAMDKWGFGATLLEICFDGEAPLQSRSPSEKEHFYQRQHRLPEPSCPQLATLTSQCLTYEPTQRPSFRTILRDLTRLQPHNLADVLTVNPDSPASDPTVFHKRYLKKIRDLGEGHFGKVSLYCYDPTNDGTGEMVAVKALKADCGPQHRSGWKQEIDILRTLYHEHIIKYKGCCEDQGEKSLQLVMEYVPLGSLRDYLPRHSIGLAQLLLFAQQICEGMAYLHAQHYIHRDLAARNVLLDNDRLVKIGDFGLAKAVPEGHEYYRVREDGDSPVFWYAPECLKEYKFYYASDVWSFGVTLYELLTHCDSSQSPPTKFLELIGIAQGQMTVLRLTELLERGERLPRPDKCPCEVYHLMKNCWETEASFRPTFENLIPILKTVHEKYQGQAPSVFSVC
T1 sequence (P23458 849-1154): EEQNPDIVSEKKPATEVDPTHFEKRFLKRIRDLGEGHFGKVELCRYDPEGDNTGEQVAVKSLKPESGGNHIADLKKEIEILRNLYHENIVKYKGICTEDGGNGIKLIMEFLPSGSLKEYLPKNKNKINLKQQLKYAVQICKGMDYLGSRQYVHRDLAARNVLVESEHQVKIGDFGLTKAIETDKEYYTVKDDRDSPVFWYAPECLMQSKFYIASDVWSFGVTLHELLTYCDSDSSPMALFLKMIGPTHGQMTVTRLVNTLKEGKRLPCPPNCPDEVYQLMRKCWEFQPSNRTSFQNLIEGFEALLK
T2 sequence (Q9UM73 19-1620): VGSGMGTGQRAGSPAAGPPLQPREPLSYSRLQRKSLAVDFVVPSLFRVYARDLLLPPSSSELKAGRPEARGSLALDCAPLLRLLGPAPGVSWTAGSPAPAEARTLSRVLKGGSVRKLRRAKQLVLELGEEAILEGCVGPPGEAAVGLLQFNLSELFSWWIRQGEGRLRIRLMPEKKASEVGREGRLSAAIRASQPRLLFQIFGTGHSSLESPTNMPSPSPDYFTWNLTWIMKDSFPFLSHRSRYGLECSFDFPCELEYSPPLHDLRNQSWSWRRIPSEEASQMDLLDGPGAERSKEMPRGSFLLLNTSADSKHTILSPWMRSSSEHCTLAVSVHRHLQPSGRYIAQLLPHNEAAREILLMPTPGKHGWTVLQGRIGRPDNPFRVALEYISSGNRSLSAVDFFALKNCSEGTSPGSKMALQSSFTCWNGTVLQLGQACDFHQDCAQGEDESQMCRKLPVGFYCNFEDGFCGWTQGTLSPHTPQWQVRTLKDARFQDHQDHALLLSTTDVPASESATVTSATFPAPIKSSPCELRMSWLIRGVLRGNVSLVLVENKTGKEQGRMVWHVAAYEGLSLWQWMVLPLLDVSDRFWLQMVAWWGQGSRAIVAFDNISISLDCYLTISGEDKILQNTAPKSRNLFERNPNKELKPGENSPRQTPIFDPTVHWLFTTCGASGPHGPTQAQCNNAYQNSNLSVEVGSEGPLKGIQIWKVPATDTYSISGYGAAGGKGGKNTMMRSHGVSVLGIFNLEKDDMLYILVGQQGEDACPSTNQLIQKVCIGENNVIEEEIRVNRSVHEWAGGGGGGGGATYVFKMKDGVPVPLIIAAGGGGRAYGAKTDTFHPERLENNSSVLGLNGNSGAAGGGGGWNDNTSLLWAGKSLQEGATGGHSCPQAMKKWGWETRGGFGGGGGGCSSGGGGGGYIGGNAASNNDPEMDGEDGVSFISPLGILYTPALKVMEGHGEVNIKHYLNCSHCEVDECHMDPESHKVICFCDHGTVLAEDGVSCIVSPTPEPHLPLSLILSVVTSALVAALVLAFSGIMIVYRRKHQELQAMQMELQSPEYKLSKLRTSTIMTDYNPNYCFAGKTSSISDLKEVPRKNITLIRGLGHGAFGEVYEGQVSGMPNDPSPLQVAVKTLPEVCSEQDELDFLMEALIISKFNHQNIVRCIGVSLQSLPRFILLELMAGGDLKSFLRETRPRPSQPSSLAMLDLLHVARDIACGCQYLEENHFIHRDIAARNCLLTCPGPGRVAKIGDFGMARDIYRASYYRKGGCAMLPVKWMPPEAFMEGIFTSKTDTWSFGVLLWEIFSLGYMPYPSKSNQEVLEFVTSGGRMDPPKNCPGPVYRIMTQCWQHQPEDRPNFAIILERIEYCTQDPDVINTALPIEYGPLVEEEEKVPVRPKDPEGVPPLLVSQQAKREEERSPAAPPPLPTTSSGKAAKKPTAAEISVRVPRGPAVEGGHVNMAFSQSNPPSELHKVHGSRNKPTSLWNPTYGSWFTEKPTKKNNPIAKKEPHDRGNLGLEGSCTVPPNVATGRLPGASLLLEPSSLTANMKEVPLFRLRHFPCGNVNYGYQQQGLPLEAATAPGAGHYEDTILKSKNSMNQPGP

The IC50 is the point on the concentration scale where inhibition reaches its midpoint. Regarding `Cc1csc(NC(=O)Nc2ccc3cc2CCc2cccc(c2)Nc2ncc(Cl)c(n2)N3)n1` [Example B249, N-[6-Chloro-2,4,8,22-tetraazatetracyclo[14.3.1.1(3,7).1(9,13)]docosa-1(20),3(22),4,6,9(21),10,12,16,18-nonaen-12-yl]-N′-(4-methyl-1,3-thiazol-2-yl)ureatrifluoroacetate], the IC50 amounted to 30 nM in test [1] (Table B1), 6 nM in test [2] (Table B1), 8.6 nM in test [4] (Table B1) and 103 nM in test [5] (Table B1). Also, the “ALK % of inhibition at a concentration of 500 nM or 1 mM” value (“ALK % of inhibition” for short) in test [3] (setting [6]) worked out at 35%.
With `O=C(Nc1ccc2cc1CCc1cccc(c1)Nc1ncc(Cl)c(n1)N2)c1ccsc1` [Example B62, N-[6-Chloro-2,4,8,22-tetraazatetracyclo[14.3.1.1(3,7).1(9,13)]docosa-1(20), 3(22),4,6,9(21),10,12,16,18-nonaen-12-yl]thiophene-3-carboxamide trifluoroacetate], the IC50 in test [1] (Table B1) came out at 2.7 nM; in test [2] (Table B1), 1.8 nM; in test [3], 210 nM; in test [4] (Table B1), 1.9 nM; in test [5] (Table B1), 4.8 nM.
Regarding `O=C(CC1CCN(c2ccncc2)CC1)Nc1ccc2cc1CCc1cncc(c1)Nc1ncc(Cl)c(n1)N2` [Example A242, N-[6-Chloro-2,4,8,18,22-pentaazatetracyclo[14.3.1.1(3,7).1(9,13)]docosa-1(20),3(22),4,6,9(21),10,12,16,18-nonaen-12-yl]-2-(1-pyridin-4-ylpiperidin-4-yl)acetamide tris(trifluoroacetate)], the IC50 was over 400 nM in test [1], 40 nM in test [2] (setting [7]), over 400 nM in test [4] (setting [9]) and over 400 nM in test [5] (setting [10]). Besides, the “ALK % of inhibition” value in test [3] (setting [8]) was 31%.
For the compound `O=C(Nc1ccc2cc1CCc1cccc(c1)Nc1ncc(Cl)c(n1)N2)c1cccc(Cl)c1` [Example B42, 3-Chloro-N-[6-chloro-2,4,8,22-tetraazatetracyclo[14.3.1.1(3,7).1(9,13)]docosa-1(20),3(22),4,6,9(21),10,12,16,18-nonaen-12-yl]benzamide hydrochloride], the IC50 in test [1] (Table B1) stood at 3.9 nM; in test [2] (Table B1), 1.7 nM; in test [3], 310 nM; in test [4] (Table B1), 0.75 nM; in test [5] (Table B1) it was 7 nM.
As to `CC(C)C(=O)N1CCC(CC(=O)Nc2ccc3cc2CCc2cccc(c2)Nc2ncc(Cl)c(n2)N3)CC1` [Example A89, N-[6-Chloro-2,4,8,22-tetraazatetracyclo[14.3.1.1(3,7).1(9,13)]docosa-1(20),3(22),4,6,9(21),10,12,16,18-nonaen-12-yl]-2-(1-isobutyrylpiperidin-4-yl)acetamide trifluoroacetate], the IC50 in test [1] worked out at 3 nM; in test [2] (setting [7]), 6.5 nM; in test [4] (setting [9]), 3.7 nM; in test [5] (setting [10]) it was 57 nM. In test [3] (setting [8]), the “ALK % of inhibition” value was 29%.
`O=C(Nc1ccc2cc1CCc1cccc(c1)Nc1ncc(Cl)c(n1)N2)N1CCN(c2ccccn2)CC1` [Example B290, N-[6-Chloro-2,4,8,22-tetraazatetracyclo[14.3.1.1(3,7).1(9,13)]docosa-1(20),3(22),4,6,9(21),10,12,16,18-nonaen-12-yl]-4-pyridin-2-ylpiperazine-1-carboxamide bis(trifluoroacetate)]: the IC50 is 59 nM in test [1] (Table B1), 82 nM in test [2] (Table B1), 89 nM in test [4] (Table B1) and over 200 nM in test [5] (Table B1). The “ALK % of inhibition” value in test [3] (setting [6]) was 50%.
The like results for `CC(=O)Nc1ccc(S(=O)(=O)Nc2ccc3cc2CCc2cccc(c2)Nc2ncc(Cl)c(n2)N3)cc1` [Example B161, N-[4-({[6-Chloro-2,4,8,22-tetraazatetracyclo[14.3.1.1(3,7).1(9,13)]docosa-1(20),3(22),4,6,9(21),10,12,16,18-nonaen-12-yl]amino}sulfonyl)phenyl]acetamide trifluoroacetate] were, in that order, 2.6 nM, 1.6 nM, 1.1 nM, 8.5 nM and 58%.
The matching figures for `O=C(NCCN1CCOCC1)Nc1ccc2cc1CCc1cccc(c1)Nc1ncc(Cl)c(n1)N2` [Example B254, N-[6-Chloro-2,4,8,22-tetraazatetracyclo[14.3.1.1(3,7).1(9,13)]docosa-1(20),3(22),4,6,9(21),10,12,16,18-nonaen-12-yl]-N′-(2-morpholin-4-ylethyl)urea bis(trifluoroacetate)]: 8.2 nM, 2 nM, 2.4 nM, 26 nM and 18%.
On to `O=C(COc1ccc2cc1CCc1cccc(c1)Nc1ncc(Cl)c(n1)N2)N1CCN(C(=O)Nc2ccc(Cl)nc2)CC1` [Example A10, 4-(6-Chloropyridin-3-yl)-4-({[6-chloro-2,4,8,22-tetraazatetracyclo[14.3.1.1(3,7).1(9,13)]docosa-1(20),3(22),4,6,9(21),10,12,16,18-nonaen-12-yl]oxy}acetyl)piperazine-1-carboxamide bis(trifluoroacetate)], for which the IC50 in test [1] was 50 nM; in test [2] (setting [7]), 14 nM; in test [4] (setting [9]), 21 nM; in test [5] (setting [10]), 104 nM. The “ALK % of inhibition” value in test [3] (setting [8]) worked out at 5%.
With `O=C(O)c1cccc(S(=O)(=O)Nc2ccc3cc2CCc2cccc(c2)Nc2ncc(Cl)c(n2)N3)c1` [Example B159, 3-({[6-Chloro-2,4,8,22-tetraazatetracyclo[14.3.1.1(3,7).1(9,13)]docosa-1(20),3(22),4,6,9(21),10,12,16,18-nonaen-12-yl]amino}sulfonyl)benzoic acid trifluoroacetate], the IC50 is 1.6 nM in test [1] (Table B1), 1.3 nM in test [2] (Table B1), 0.46 nM in test [4] (Table B1) and 3.1 nM in test [5] (Table B1). Moreover, the “ALK % of inhibition” value in test [3] (setting [6]) came out at 82%.
The like results for `O=C(Nc1ccc2cc1CCc1cccc(c1)Nc1ncc(Cl)c(n1)N2)N[C@@H]1CCNC1` [Example B175, N-[6-Chloro-2,4,8,22-tetraazatetracyclo[14.3.1.1(3,7).1(9,13)]docosa-1(20),3(22),4,6,9(21),10,12,16,18-nonaen-12-yl]-N′-[(3R)-pyrrolidin-3-yl]urea dihydrochloride] were, in that order, 31 nM, 9 nM, 18 nM, 69 nM and 18%.
The like results for `CN(C(=O)Nc1ccc2cc1CCc1cncc(c1)Nc1ncc(Cl)c(n1)N2)[C@H]1CCNC1` [Example B288, N′-[6-Chloro-2,4,8,18,22-pentaazatetracyclo[14.3.1.1(3,7).1(9,13)]docosa-1(20),3(22),4,6,9(21),10,12,16,18-nonaen-12-yl]-N-methyl-N-[(3S)-pyrrolidin-3-yl]urea tris(trifluoroacetate)] were, in that order, over 200 nM, 42 nM, 180 nM, over 200 nM and 18%.
